These results are taken from US20180201609A1 (AURIGENE DISCOVERY TECHNOLOGIES LIMITED, priority 2015, published 2018).

Counter-ions that a name gives are not always drawn.

In this experiment the target is T1, IRAK-4 enzyme (Homo sapiens, UniProt Q9NWZ3).
T1 construct: purchased Millipore, USA
T1 sequence (Q9NWZ3 1-460): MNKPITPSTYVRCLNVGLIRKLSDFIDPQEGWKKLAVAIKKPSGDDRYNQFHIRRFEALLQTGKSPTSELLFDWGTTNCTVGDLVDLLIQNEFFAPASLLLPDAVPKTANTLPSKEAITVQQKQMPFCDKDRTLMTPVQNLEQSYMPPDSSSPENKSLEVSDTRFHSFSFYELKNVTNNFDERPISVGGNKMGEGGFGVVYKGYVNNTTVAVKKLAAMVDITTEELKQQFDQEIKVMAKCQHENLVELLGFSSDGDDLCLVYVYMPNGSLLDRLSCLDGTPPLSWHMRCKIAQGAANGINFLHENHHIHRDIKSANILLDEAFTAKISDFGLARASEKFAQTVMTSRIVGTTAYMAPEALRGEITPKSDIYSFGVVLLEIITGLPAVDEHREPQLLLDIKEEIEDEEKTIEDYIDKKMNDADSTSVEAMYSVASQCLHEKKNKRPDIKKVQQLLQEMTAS
Description: IRAK-4 Biochemical Assay (TR-FRET). Particulars: recombinant IRAK-4 kinase, 20 μM ATP; for inhibition at 0.1 µM: 0.1 μM compound; for inhibition at 1 µM: 1 μM compound. The procedure:
Compounds were tested for their potential to inhibit IRAK-4 enzyme in a TR-FRET assay using recombinant IRAK-4 kinase from Millipore, USA. The assay buffer was 50 mM Tris-HCl pH 7.5, 20 mM MgCl2, 1 mM EGTA, 2 mM DTT, 3 mM MnCl2 and 0.01% Tween 20.5 ng of IRAK-4 kinase was used for the assay. After pre-incubation of enzyme with test compound for 30 minutes at room temperature, a substrate mixture containing 100 nM Biotin Histone H3 (Millipore, USA) and 20 μM ATP (Sigma, USA) was added and the reaction was incubated for 30 min. Post incubation, the reaction was stopped by the addition of stop mix containing 40 mM EDTA, 1 nM of Europium-Anti-Phospho-Histone H3 (Ser10) antibody (Perkin Elmer, USA) and 20 nM SureLight Allophycocyanin-Streptavidin (Perkin Elmer, USA). The fluorescence emission at 615 nm and 665 nm were measured at an excitation of 340 nm and the percent inhibition was estimated from the ratio of the fluorescence intensities [(F665/F615)×10000].
The compounds of the present invention were screened in the above mentioned assay and the percent inhibition data is summarized in the Table 1.

In the case of `COCCn1ncc2cc(NC(=O)c3coc(-c4ccnc(N)c4)n3)c(N3CCC(O)CC3)cc21` [Example 7, 2-(2-aminopyridin-4-yl)-N-(6-(4-hydroxypiperidin-1-yl)-1-(2-methoxyethyl)-1H-indazol-5-yl)oxazole-4-carboxamide hydrochloride], the inhibition at 0.1 µM was found to be 96% and the inhibition at 1 µM was determined as 98%.

On to `Cc1cc(-c2nc(C(=O)Nc3cc4c(C)nn(C)c4nc3N3CCC(CO)CC3)co2)ccn1` [Example 28, N-(6-(4-(hydroxymethyl)piperidin-1-yl)-1,3-dimethyl-1H-pyrazolo[3,4-b]pyridin-5-yl)-2-(2-methylpyridin-4-yl)oxazole-4-carboxamide], for which the inhibition at 0.1 µM is 89% and the inhibition at 1 µM was found to be 97%.

As for `Cn1cc2cc(NC(=O)c3cccc(-c4ccnc(N)n4)n3)c(C3CC3)cc2n1` [Example 47, 6-(2-aminopyrimidin-4-yl)-N-(6-cyclopropyl-2-methyl-2H-indazol-5-yl)picolinamide], the inhibition at 0.1 µM amounted to 77% and the inhibition at 1 µM was found to be 95%.

On to `Cn1cc2cc(NC(=O)c3coc(-c4cccc(N)n4)n3)c(N3CCCCC3)cc2n1` [Example 41, 2-(6-aminopyridin-2-yl)-N-(2-methyl-6-(piperidin-1-yl)-2H-indazol-5-yl)oxazole-4-carboxamide], for which the inhibition at 0.1 µM worked out at 96% and the inhibition at 1 µM is 97%.

Regarding `O=C(Nc1cc2cn(CCN3CCOCC3)nc2cc1C1CC1)c1cccc(N2CCC(O)C2)n1` (centres unmarked) [Example 55, N-(6-cyclopropyl-2-(2-morpholinoethyl)-2H-indazol-5-yl)-6-(3-hydroxypyrrolidin-1-yl)picolinamide], the inhibition at 0.1 µM was found to be 92% and the inhibition at 1 µM is 95%.

Regarding `Cn1cc2cc(NC(=O)c3cccc(N4CC[C@@H](OC(=O)CN)C4)n3)c(N3CCCCC3)cc2n1` [Example 58, (R)-1-(6-((2-methyl-6-(piperidin-1-yl)-2H-indazol-5-yl)carbamoyl)pyridin-2-yl)pyrrolidin-3-yl glycinate 2,2,2-trifluoroacetate], the inhibition at 0.1 µM turned out to be 91% and the inhibition at 1 µM amounted to 96%.

In the case of `Cc1nn(C)c2cc(N3CCC(CO)CC3)c(NC(=O)c3cccc(-c4ccc(N)nc4)n3)cc12` [Example 37, 6′-amino-N-(6-(4-(hydroxymethyl)piperidin-1-yl)-1,3-dimethyl-1H-indazol-5-yl)-[2,3′-bipyridine]-6-carboxamide hydrochloride], the inhibition at 0.1 µM is 14% and the inhibition at 1 µM was determined as 75%.

Regarding `Cn1cc2cc(NC(=O)c3cccc(-c4ccnc(N)c4)n3)c(N3CCOCC3)cc2n1` [Example 50, 2′-amino-N-(2-methyl-6-morpholino-2H-indazol-5-yl)-[2,4′-bipyridine]-6-carboxamide hydrochloride], the inhibition at 0.1 µM was determined as 86% and the inhibition at 1 µM was found to be 95%.

For `CN1CCN(CCn2ncc3cc(NC(=O)c4coc(-c5ccnc(N)c5)n4)c(N4CCC(O)CC4)cc32)CC1` [Example 31, 2-(2-aminopyridin-4-yl)-N-(6-(4-hydroxypiperidin-1-yl)-1-(2-(4-methylpiperazin-1-yl)ethyl)-1H-indazol-5-yl)oxazole-4-carboxamide hydrochloride], the inhibition at 0.1 µM worked out at 99% and the inhibition at 1 µM worked out at 99%.

Take `Cn1cc2cc(NC(=O)c3cccc(-c4ccnc(N)c4)n3)c(N3CCCCC3)cc2n1` [Example 43, 2′-amino-N-(2-methyl-6-(piperidin-1-yl)-2H-indazol-5-yl)-[2,4′-bipyridine]-6-carboxamide hydrochloride]: the inhibition at 0.1 µM stood at 97% and the inhibition at 1 µM worked out at 96%.

With `COCCn1nc(C)c2cc(NC(=O)c3coc(-c4ccnc(N)c4)n3)c(N3CCC(CO)CC3)nc21` [Example 30, 2-(2-aminopyridin-4-yl)-N-(6-(4-(hydroxymethyl)piperidin-1-yl)-1-(2-methoxyethyl)-3-methyl-1H-pyrazolo[3,4-b]pyridin-5-yl)oxazole-4-carboxamide], the inhibition at 0.1 µM amounted to 86% and the inhibition at 1 µM is 99%.

As to `Cc1cc(-c2nc(C(=O)Nc3cc4cnn(CCN(C)C)c4cc3N3CCC(O)CC3)co2)ccn1` [Example 2, N-(1-(2-(dimethylamino)ethyl)-6-(4-hydroxypiperidin-1-yl)-1H-indazol-5-yl)-2-(2-methylpyridin-4-yl)oxazole-4-carboxamide], the inhibition at 0.1 µM amounted to 95% and the inhibition at 1 µM came to 98%.

Take `C=CCOCC1CCN(c2cc3c(cc2NC(=O)c2coc(-c4ccnc(N)c4)n2)c(C)nn3C)CC1` [Example 12, N-(6-(4-((allyloxy)methyl)piperidin-1-yl)-1,3-dimethyl-1H-indazol-5-yl)-2-(2-aminopyridin-4-yl)oxazole-4-carboxamide]: the inhibition at 0.1 µM was determined as 95% and the inhibition at 1 µM turned out to be 96%.

As to `Cc1cc(-c2nc(C(=O)Nc3cc4cnn(CCN5CCOCC5)c4cc3N3CCC(O)CC3)co2)ccn1` [Example 3, N-(6-(4-hydroxypiperidin-1-yl)-1-(2-morpholinoethyl)-1H-indazol-5-yl)-2-(2-methylpyridin-4-yl)oxazole-4-carboxamide], the inhibition at 0.1 µM is 97% and the inhibition at 1 µM came to 100%.

Turning to `Cn1cc2cc(NC(=O)c3coc(N4CC[C@H](O)C4)n3)c(C3CC3)nc2n1` [Example 22, (S)—N-(6-cyclopropyl-2-methyl-2H-pyrazolo[3,4-b]pyridin-5-yl)-2-(3-hydroxypyrrolidin-1-yl)oxazole-4-carboxamide], the inhibition at 1 µM is 65%.

For the molecule `Cc1nn(C)c2nc(N3CCC(CO)CC3)c(NC(=O)c3coc(-c4ccnc(N)c4)n3)cc12` [Example 29, 2-(2-aminopyridin-4-yl)-N-(6-(4-(hydroxymethyl)piperidin-1-yl)-1,3-dimethyl-1H-pyrazolo[3,4-b]pyridin-5-yl)oxazole-4-carboxamide], the inhibition at 0.1 µM came out at 97% and the inhibition at 1 µM is 99%.

Turning to `CN1CCC(n2cc3cc(NC(=O)c4cccc(N5CCC(O)C5)n4)c(C4CC4)cc3n2)CC1` (centres unmarked) [Example 56, N-(6-cyclopropyl-2-(1-methylpiperidin-4-yl)-2H-indazol-5-yl)-6-(3-hydroxypyrrolidin-1-yl)picolinamide hydrochloride], the inhibition at 0.1 µM came to 20% and the inhibition at 1 µM is 71%.

Regarding `C=CCOCC1CCN(c2cc3c(cc2NC(=O)c2coc(-c4cccc(N)n4)n2)c(C)nn3C)CC1` [Example 34], the inhibition at 0.1 µM came to 25% and the inhibition at 1 µM turned out to be 46%.

In the case of `Cn1cc2cc(NC(=O)c3cccc(N4CC[C@@H](O)C4)n3)c(N3CCCCC3)cc2n1` [Example 57, (R)-6-(3-hydroxypyrrolidin-1-yl)-N-(2-methyl-6-(piperidin-1-yl)-2H-indazol-5-yl)picolinamide], the inhibition at 0.1 µM came out at 96% and the inhibition at 1 µM is 101%.

Consider `Cc1cc(-c2nc(C(=O)Nc3cc4cnn(CCN5CCN(C)CC5)c4cc3N3CCC(O)CC3)co2)ccn1` [Example 6, N-(6-(4-hydroxypiperidin-1-yl)-1-(2-(4-methylpiperazin-1-yl)ethyl)-1H-indazol-5-yl)-2-(2-methylpyridin-4-yl)oxazole-4-carboxamide], for which the inhibition at 0.1 µM worked out at 79% and the inhibition at 1 µM turned out to be 96%.

For the molecule `Cn1cc2cc(NC(=O)c3cccc(-c4cccc(N)n4)n3)c(N3CCCCC3)cc2n1` [Example 46, 6′-amino-N-(2-methyl-6-(piperidin-1-yl)-2H-indazol-5-yl)-[2,2′-bipyridine]-6-carboxamide], the inhibition at 0.1 µM came to 93% and the inhibition at 1 µM was determined as 96%.

Take `COc1ccc(C(=O)Nc2cc3cn(C)nc3cc2N2CCCCC2)nc1N1CCC(O)C1` (centres unmarked) [Example 62, 6-(3-hydroxypyrrolidin-1-yl)-5-methoxy-N-(2-methyl-6-(piperidin-1-yl)-2H-indazol-5-yl)picolinamide]: the inhibition at 0.1 µM is 9% and the inhibition at 1 µM was determined as 21%.

Consider `COCCn1nc(C)c2cc(NC(=O)c3coc(-c4ccnc(N)c4)n3)c(N3CCC(CO)CC3)cc21` [Example 10, 2-(2-aminopyridin-4-yl)-N-(6-(4-(hydroxymethyl)piperidin-1-yl)-1-(2-methoxyethyl)-3-methyl-1H-indazol-5-yl)oxazole-4-carboxamide hydrochloride], for which the inhibition at 0.1 µM came out at 99% and the inhibition at 1 µM worked out at 99%.

With `Cn1cc2cc(NC(=O)c3ccnc(N4CCC(O)C4)n3)c(C3CC3)cc2n1` (centres unmarked) [Example 72, N-(6-cyclopropyl-2-methyl-2H-indazol-5-yl)-2-(3-hydroxypyrrolidin-1-yl)pyrimidine-4-carboxamide], the inhibition at 0.1 µM stood at 29% and the inhibition at 1 µM was 86%.
